Molecules are shown by their SMILES. Values after ≈ are worked out from the molar mass of the structure shown. Read-outs that look alike come from different tables or passages of the source. Where only a bound is given, the exact number is not on record here.

The values that follow come from patent US8722937B2 (priority 2006, dated 2014).

Assay [1] has as its target T1, FabH derived from E. coli (ecFabH) (Escherichia coli, UniProt P0A6R0).
T1 construct: polyhistidine (N); made in house; host or cells: E. coli
T1 sequence (P0A6R0 1-317): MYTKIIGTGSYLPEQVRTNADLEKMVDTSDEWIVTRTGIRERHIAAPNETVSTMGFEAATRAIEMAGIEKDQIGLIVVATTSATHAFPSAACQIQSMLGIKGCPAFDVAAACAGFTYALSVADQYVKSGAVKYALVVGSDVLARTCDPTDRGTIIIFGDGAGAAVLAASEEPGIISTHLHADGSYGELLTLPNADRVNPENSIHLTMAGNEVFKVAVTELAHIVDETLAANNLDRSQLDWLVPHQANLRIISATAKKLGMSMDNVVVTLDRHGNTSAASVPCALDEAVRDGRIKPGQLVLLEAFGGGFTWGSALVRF
The assay can be described thus: FabH enzyme assay (coupled trichloroacetic acid precipitation assay), ecFabH. The note with it: 5 μM of test compound; read-out: Percent inhibition of FabH derived from E. coli, ecFabH (%). The class given is biochemical.

For assay [2], the system named is S. aureus (ATCC 25923). Description: microbe, parasite or virus in culture. The note with it: for zone of inhibition at 20 µg/disc: Staphylococcus aureus, ATCC25923; for zone of inhibition at 20 µg/disc / Zones of growth inhibition of S. aureus (ATCC 25923) / Zones of growth inhibition of S. aureus (ATCC 25923), areas of partial inhibition: 24 h, 37° C. The class given is cell-based, Staphylococcus aureus.

Assay [3] concerns methicillin-resistant S. aureus (MRSA). The assay can be described thus: microbe, parasite or virus in culture. The class given is cell-based, Staphylococcus aureus. The note with it: for zone of inhibition at 20 µg/disc: Staphylococcus aureus, MRSA, read-out: Average zones of growth inhibition of MRSA (USF-652-659, 919-920).
Assay [4] deals with S. aureus (ATCC 25923). The assay can be described thus: Agar dilution minimum inhibitory concentration (MIC), S. aureus. The class given is cell-based, Staphylococcus aureus. The note with it: for MIC: Staphylococcus aureus. A general note: Agar dilution tests growth on a series of plates holding different concentrations.
For assay [5], the system named is B. anthracis (USF 848). Description: microbe, parasite or virus in culture. The class given is cell-based, Bacillus anthracis. The note with it: 24 h, 37° C.; for zone of inhibition at 20 µg/disc: Bacillus anthracis.
Assay [6] deals with B. anthracis (USF 848). Description: microbe, parasite or virus in culture. The class given is cell-based, Bacillus anthracis. The note with it: for MIC: Bacillus anthracis, read-out: Minimum inhibitory concentration (MIC) against B. anthracis (USF 848).
Assay [7] concerns E. coli (K12; ATCC 23590). Description: Kirby-Bauer zones of inhibition, E. coli. The class given is cell-based, Escherichia coli. The note with it: for Zone of Inhibition (mm), E. coli, zones of partial inhibition / Zone of Inhibition (mm), E. coli: K12 strain, ATCC 23590; for Zone of Inhibition (mm), E. coli, zones of partial inhibition: number in parentheses; for Zone of Inhibition (mm), E. coli: number outside parentheses; for zone of inhibition against E. coli: full or partial not stated.

Assay [8] deals with E. coli (K12; ATCC 23590). Description: Minimum inhibitory concentration (MIC), E. coli. The class given is cell-based. The note with it: Escherichia coli, ATCC23590, read-out: MIC (μg/mL) against E. coli.
[9] abbreviates: read-out: Zones of growth inhibition of S. aureus (ATCC 25923).
[10] abbreviates: read-out: Zones of growth inhibition of S. aureus (ATCC 25923), areas of partial inhibition.
[11] abbreviates: ATCC 25923 / MSSA, read-out: MIC (MSSA).
Where [12] appears, read: ATCC25923, serial dilution in 24-well plate, NCCLS, read-out: Minimum inhibitory concentration (MIC) against S. aureus (ATCC 25923).
Setting [13] is: read-out: Zones of growth inhibition of B. anthracis (USF 848).
Setting [14] is: read-out: Zones of growth inhibition of B. anthracis (USF 848), areas of partial growth inhibition.

For `CC(C)SSc1ccc([N+](=O)[O-])cc1` [Compound 38c, Isopropyl p-nitrophenyl disulfide], in assay [1], the inhibition at 5 µM was determined as 98.5%. For the same compound, the “Zone (MSSA)” value with S. aureus (ATCC 25923) [2] turned out to be 47 mm. In addition, the zone of inhibition at 20 µg/disc in the assay on S. aureus (ATCC 25923) [2] (setting [9]) turned out to be 68 mm; in the assay with S. aureus (ATCC 25923) [2] (setting [10]), 85 mm; in assay [3] (24 h, 37° C.) it was 75 mm; in the assay on B. anthracis (USF 848) [5] (setting [13]) it was 71 mm. Also, the “Zone (MRSA)” value in assay [3] is 70 mm. Moreover, the MIC was 0.8 µg/mL (≈ 3.49 µM) with S. aureus (ATCC 25923) [4] (setting [11]), 0.4 µg/mL (≈ 1.74 µM) with S. aureus (ATCC 25923) [4] (setting [12]), below 0.125 µg/mL in the assay with B. anthracis (USF 848) [6] and 96 µg/mL (≈ 419 µM) in assay [8]. The “Zone of Inhibition (mm), E. coli, zones of partial inhibition” value (“Zone of Inhibition … of partial inhibition” for short) in assay [7] is reported as “(11) mm”.

On to `CCC(C)SSc1ccc([N+](=O)[O-])cc1` (stereo not drawn) [Compound 38d, Sec-Butyl p-nitrophenyl Disulfide], for which, in assay [1], the inhibition at 5 µM amounted to 96%. Further, the “Zone (MSSA)” value with S. aureus (ATCC 25923) [2] was determined as 67 mm. For the same compound, the zone of inhibition at 20 µg/disc in the assay on S. aureus (ATCC 25923) [2] (setting [9]) came to 47 mm; in the assay with S. aureus (ATCC 25923) [2] (setting [10]), 68 mm; in assay [3] (24 h, 37° C.), 54 mm; in the assay on B. anthracis (USF 848) [5] (setting [13]), 56 mm; in the assay with B. anthracis (USF 848) [5] (setting [14]) it was 62 mm. Besides, in assay [3], the “Zone (MRSA)” value is recorded as 54 mm. In addition, the MIC is 0.4 µg/mL (≈ 1.64 µM) with S. aureus (ATCC 25923) [4] (setting [11]), 0.8 µg/mL (≈ 3.29 µM) in the assay with S. aureus (ATCC 25923) [4] (setting [12]), below 0.125 µg/mL in the assay with B. anthracis (USF 848) [6] and 128 µg/mL (≈ 526 µM) in assay [8]. Further, in assay [7], the “Zone of Inhibition … of partial inhibition” value is listed as “(10) mm”.

For `CCCSSc1ccc([N+](=O)[O-])cc1` [Compound 38e, p-Nitrophenyl n-propyl Disulfide], in assay [1], the inhibition at 5 µM was 91%. Besides, the zone of inhibition at 20 µg/disc worked out at 36 mm with S. aureus (ATCC 25923) [2] (setting [9]); 43 mm in the assay on S. aureus (ATCC 25923) [2] (setting [10]); 38 mm in assay [3] (24 h, 37° C.); 49 mm in the assay with B. anthracis (USF 848) [5] (setting [13]); 57 mm in the assay on B. anthracis (USF 848) [5] (setting [14]). Also, the MIC in the assay on S. aureus (ATCC 25923) [4] (setting [12]) was determined as 24 µg/mL (≈ 105 µM); with B. anthracis (USF 848) [6], 1 µg/mL (≈ 4.36 µM); in assay [8] it was 64 µg/mL (≈ 279 µM). Also, the “Zone of Inhibition … of partial inhibition” value in assay [7] is 21 mm. Also, the “Zone of Inhibition (mm), E. coli” value in assay [7] was 16 mm.

Regarding `CCCCSSc1ccc([N+](=O)[O-])cc1` [Compound 38f, n-Butyl p-nitrophenyl Disulfide], the inhibition at 5 µM in assay [1] is 93%. Besides, the zone of inhibition at 20 µg/disc amounted to 41 mm in the assay with S. aureus (ATCC 25923) [2] (setting [9]); 53 mm in the assay on S. aureus (ATCC 25923) [2] (setting [10]); 28 mm in assay [3] (24 h, 37° C.); 44 mm in the assay with B. anthracis (USF 848) [5] (setting [13]); 52 mm in the assay with B. anthracis (USF 848) [5] (setting [14]). Also, the MIC with S. aureus (ATCC 25923) [4] (setting [12]) stood at 32 µg/mL (≈ 131 µM); in the assay on B. anthracis (USF 848) [6], 1 µg/mL (≈ 4.11 µM); in assay [8] it was 96 µg/mL (≈ 394 µM). Further, in assay [7], the “Zone of Inhibition … of partial inhibition” value amounted to 22 mm. The “Zone of Inhibition (mm), E. coli” value in assay [7] is on record as 15 mm.

As to `CSSc1cccc([N+](=O)[O-])c1` [Compound 43a, Methyl m-nitrophenyl Disulfide], the “Zones of growth inhibition of S. aureus (ATCC 25923)” value with S. aureus (ATCC 25923) [2] was 27 (36) mm. The “Zones of growth inhibition of S. aureus (ATCC 25923), areas of partial inhibition” value (“Zones … areas of partial inhibition” for short) in the assay on S. aureus (ATCC 25923) [2] is on record as 27 (36) mm. Further, the zone of inhibition at 20 µg/disc stood at 27 mm with S. aureus (ATCC 25923) [2] (setting [9]); 36 mm in the assay with S. aureus (ATCC 25923) [2] (setting [10]); 15 mm in assay [3] (24 h, 37° C.); 43 mm with B. anthracis (USF 848) [5] (setting [13]). Besides, the MIC in the assay on S. aureus (ATCC 25923) [4] (setting [12]) was 16 µg/mL (≈ 79.5 µM); in the assay on B. anthracis (USF 848) [6], 2 µg/mL (≈ 9.94 µM). Also, the “zone of inhibition against E. coli” value in assay [7] was determined as 10 mm.

With `CCC(C)SSc1cccc([N+](=O)[O-])c1` (stereo not drawn) [Compound 43d, s-Butyl m-nitrophenyl Disulfide], the “Zones of growth inhibition of S. aureus (ATCC 25923)” value in the assay on S. aureus (ATCC 25923) [2] was 25 (45) mm. Moreover, the “Zones … areas of partial inhibition” value in the assay on S. aureus (ATCC 25923) [2] is reported as 25 (45) mm. Further, the zone of inhibition at 20 µg/disc in the assay on S. aureus (ATCC 25923) [2] (setting [9]) worked out at 25 mm; in the assay with S. aureus (ATCC 25923) [2] (setting [10]) it was 45 mm; in assay [3] (24 h, 37° C.), 22 mm; with B. anthracis (USF 848) [5] (setting [13]), 27 mm; in the assay on B. anthracis (USF 848) [5] (setting [14]), 41 mm. In addition, the figures for the MIC with S. aureus (ATCC 25923) [4] (setting [12]) and with B. anthracis (USF 848) [6] were 2 µg/mL (≈ 8.22 µM) and below 0.125 µg/mL, respectively.

`CSSc1ccccc1[N+](=O)[O-]` [Compound 44a, Methyl o-nitrophenyl Methyl Disulfide]: in the assay on S. aureus (ATCC 25923) [2], the “Zones of growth inhibition of S. aureus (ATCC 25923)” value is reported as 34(37) mm and the “Zones … areas of partial inhibition” value was 34(37) mm. For the same compound, the “Average zones of growth inhibition of MRSA (USF-652-659, 919-920)” value in assay [3] (24 h, 37° C.) came out at 26 mm. Further, the “Minimum inhibitory concentration (MIC) against S. aureus (ATCC 25923)” value in the assay on S. aureus (ATCC 25923) [4] (serial dilution in 24-well plate, NCCLS) came to 64 µg/mL (≈ 318 µM). Also, in the assay with B. anthracis (USF 848) [5], the “Zones of growth inhibition of B. anthracis (USF 848)” value is reported as 31 mm. For the same compound, the “Minimum inhibitory concentration (MIC) against B. anthracis (USF 848)” value with B. anthracis (USF 848) [6] was determined as 4 µg/mL (≈ 19.9 µM). Moreover, the “zone of inhibition against E. coli” value in assay [7] was determined as 9 mm.

Take `CC(C)SSc1ccccc1[N+](=O)[O-]` [Compound 44c, Isopropyl o-nitrophenyl Disulfide]: in the assay with S. aureus (ATCC 25923) [2], the “Zones of growth inhibition of S. aureus (ATCC 25923)” value is 17 (31) mm. Also, in the assay on S. aureus (ATCC 25923) [2], the “Zones … areas of partial inhibition” value is recorded as 17 (31) mm. Also, the zone of inhibition at 20 µg/disc in the assay on S. aureus (ATCC 25923) [2] (setting [9]) turned out to be 17 mm; in the assay on S. aureus (ATCC 25923) [2] (setting [10]), 31 mm; in assay [3] (24 h, 37° C.), 20 mm; in the assay with B. anthracis (USF 848) [5] (setting [13]) it was 16 mm; in the assay on B. anthracis (USF 848) [5] (setting [14]), 27 mm. For the same compound, the MIC with S. aureus (ATCC 25923) [4] (setting [12]) was 6 µg/mL (≈ 26.2 µM); with B. anthracis (USF 848) [6], 0.63 µg/mL (≈ 2.75 µM).

The inhibition is the share of the control response that was lost under treatment.
